Test results published in patent US10647747B2, “Cyclosporin derivatives and uses thereof” (S&T Global Inc., priority 2010, dated 2020).
Where two headings read alike, the source gives them in different places. *1 amine or outer side, *2 acyl side, *3 side chain or, on linkers, in order; H or OH if unused. Where a SMILES comes first, the peptide text is derived from it. [ ]: non-standard residue; d: D form. X3 = CC=CCC(C)C(O)C(C(=O)[*:2])N(C)[*:1]; X5 = CSCOC(C)(C)CC(C(=O)[*:2])N(C)[*:1]; X4 = CCN(CC)CCSC(C(=O)[*:2])N(C)[*:1]; NMeL = CN[CH](CC(C)C)C(=O)O; NMeV = CN[CH](C(=O)O)C(C)C; Abu = CC[CH](N)C(=O)O

Experiments:
[1] = system: HCV replicon in cell line ET (luc-ubi-neo/ET), Huh7 human hepatoma; test: HCV subgenomic replicon assay, luciferase end point; type: cell-based; conditions: Hepatitis C virus, read-out: Antiviral activity EC50
[2] = system: HIV-1IIIB in CEM-SS cells; test: Anti-HIV cytoprotection assay, acute infection model, MTS endpoint; type: cell-based; conditions: Human immunodeficiency virus 1, 144 h, Table 17, HIV-1IIIB in CEM-SS cells, 6-day incubation, read-out: Antiviral activity EC50
Protocol: Anti-HIV activity of cyclosporine derivatives were evaluated by cytoprotection assay in an acute infection model using CEM-SS cells and either HIV-1IIIB or HIV-1 RF. Antiviral activity was determined as a reduction in virus-caused cytopathic effects when compounds prevent virus replication. Cytoprotection and compound cytotoxicity were evaluated using the tetrazollium dye MTS (Promega) to calculate cell viability following virus infection after 6-day incubation (Zhou G., et al., 2011, J. Med. Chem. 27, 7220-31; which is incorporated herein by reference).

[3] = system: rat neuronal mitochondria; test: Mitochondrial swelling assay (inhibition of mitochondrial permeability transition, MPT); type: biochemical; conditions: compound 100 nM added 5 minutes before Ca2+; swelling induced by 100 micromolar calcium chloride; absorbance 620nm; control 100
Protocol: The effect of cyclosporine analogs on mitochondrial permeability transition (MPT) was determined by a modified mitochondrial swelling assay measured as an influx of Ca^2+, published by J. Blattner et al., 2001, Analytical Biochem, 295, 220-226. Briefly, rat neuronal mitochondria in an ice-cold sucrose buffer were obtained after rat whole-body perfusion and a series of centrifugation. The total protein concentration in each sample batch was determined for standardization between assays. The mitochondrial swelling was induced by 100 micromolar of Calcium Chloride. Each compound (100 nM) was added to mitochondria 5 minutes before the addition of Ca^2+. The value of absorbance at the certain wavelength (620nm) reflected the degree of mitochondrial swelling. The percentage of the swelling was calculated by comparing the absorbance in the present or absent compound of the interests.

## C/C=C/C[C@@H](C)[C@@H](O)[C@H]1C(=O)N[C@@H](CC)C(=O)N(C)[C@H](CSCCN2CCOCC2)C(=O)N(C)[C@@H](CC(C)(C)O)C(=O)N[C@@H](C(C)C)C(=O)N(C)[C@@H](CC(C)C)C(=O)N[C@@H](C)C(=O)N[C@H](C)C(=O)N(C)[C@@H](CC(C)C)C(=O)N(C)[C@@H](CC(C)C)C(=O)N(C)[C@@H](C(C)C)C(=O)N1C [[(S)-(2-(N-Morpholino)ethylthio)methyl-Sar]-3-[(γ-hydroxy)-N-MeLeu]-4-cyclosporin]
[1]; Huh-7, HCV subgenomic replicon, cell line ET (luc-ubi-neo/ET) Huh7, luciferase end point
  EC50: 60 nM
[1]; Huh-7, Table 14, HCV replicon luciferase
  EC50: 20 nM
[2]
  EC50: 94.9 nM

## CC=CCC(C)C(O)C1C(=O)NC(CC)C(=O)N(C)C(SCCN(CC)CC)C(=O)N(C)C(CC(C)(C)OCSC)C(=O)NC(C(C)C)C(=O)N(C)C(CC(C)C)C(=O)NC(C)C(=O)NC(C)C(=O)N(C)C(CC(C)C)C(=O)N(C)C(CC(C)C)C(=O)N(C)C(C(C)C)C(=O)N1C (centres unmarked) (cyclo([X3][Abu][X4][X5]V[NMeL]AA[NMeL][NMeL][NMeV]); configuration not given here)
[3]
  Mitochondrial Swelling Relative %: 52.4%

## C/C=C/C[C@@H](C)[C@@H](O)[C@H]1C(=O)N[C@@H](CC)C(=O)N(C)[C@H](CSCCN(CC)CC)C(=O)N(C)[C@@H](CC(C)(C)O)C(=O)N[C@@H](C(C)C)C(=O)N(C)[C@@H](CC(C)C)C(=O)N[C@@H](C)C(=O)N[C@H](C)C(=O)N(C)[C@@H](CC(C)C)C(=O)N(C)[C@@H](CC(C)C)C(=O)N(C)[C@@H](C(C)C)C(=O)N1C
[3]
  Mitochondrial Swelling Relative %: 55.7%
